Data on 3 molecules can be found in PMC5516944 (Structure (London, England : 1993), 2017).

As a reminder, the stoichiometry N is the number of molecules, sites or subunits per partner or assembly.

The target of one series is T1, hATL1 (Homo sapiens, UniProt Q8WXF7).
T1 sequence (Q8WXF7 1-446): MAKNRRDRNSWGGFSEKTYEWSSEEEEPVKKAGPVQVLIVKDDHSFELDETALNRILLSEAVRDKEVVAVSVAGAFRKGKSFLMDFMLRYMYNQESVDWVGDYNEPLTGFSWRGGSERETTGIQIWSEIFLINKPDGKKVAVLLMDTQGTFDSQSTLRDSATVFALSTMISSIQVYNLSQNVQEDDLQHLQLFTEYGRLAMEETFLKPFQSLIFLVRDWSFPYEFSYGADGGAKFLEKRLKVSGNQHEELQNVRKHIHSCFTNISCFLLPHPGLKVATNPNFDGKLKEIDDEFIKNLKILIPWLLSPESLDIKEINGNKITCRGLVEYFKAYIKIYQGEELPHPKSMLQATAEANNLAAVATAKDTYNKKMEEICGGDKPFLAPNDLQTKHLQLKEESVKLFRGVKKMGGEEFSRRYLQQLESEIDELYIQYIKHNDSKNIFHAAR
The experiment in a line: SEC-MALS, nucleotide-induced dimerisation. It counts as binding. To be noted: 1 mM nucleotide; 40 μM protein; pH 7.5; 4 mM MgCl2. For orientation: SEC sorts molecules by how far they enter the pores of the column.

A further series addresses T2, hATL3 (Homo sapiens, UniProt Q6DD88).
T2 sequence (Q6DD88 1-442): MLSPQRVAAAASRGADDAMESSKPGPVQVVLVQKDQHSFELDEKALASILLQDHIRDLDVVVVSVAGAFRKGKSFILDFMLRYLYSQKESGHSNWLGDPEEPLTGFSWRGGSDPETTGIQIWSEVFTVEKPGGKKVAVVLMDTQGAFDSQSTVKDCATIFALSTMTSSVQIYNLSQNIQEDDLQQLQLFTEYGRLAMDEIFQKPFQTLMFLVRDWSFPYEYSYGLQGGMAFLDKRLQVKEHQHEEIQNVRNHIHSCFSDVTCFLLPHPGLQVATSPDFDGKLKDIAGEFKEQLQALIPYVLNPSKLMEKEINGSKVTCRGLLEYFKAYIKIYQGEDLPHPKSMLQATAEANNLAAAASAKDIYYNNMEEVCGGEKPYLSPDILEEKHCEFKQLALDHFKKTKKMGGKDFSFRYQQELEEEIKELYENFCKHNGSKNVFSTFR
Description: SEC-MALS, nucleotide-induced dimerisation. The following applies: 1 mM nucleotide; 40 μM protein; pH 7.5; 4 mM MgCl2. The class given is binding.

The series “SEC-MALS” concerns the molecule itself. The experiment in a line: SEC-MALS.

Take `Nc1nc2c(ncn2[C@@H]2O[C@H](COP(=O)(O)OP(=O)(O)NP(=O)(O)O)[C@@H](O)[C@H]2O)c(=O)[nH]1` [GppNHp]: the “SEC-MALS, nucleotide-induced dimerisation” value on hATL1 was “dimeric ATLs are found when bound to GppNHp and GDP•AlFx”; at hATL3, “dimeric ATLs are found when bound to GppNHp and GDP•AlFx”.

B1: human atlastin 1 (hATL1) catalytic core fragment, G and middle domains (1–446) (domain or fragment, UniProt Q8WXF7 1-446, looked up)
chain: MAKNRRDRNSWGGFSEKTYEWSSEEEEPVKKAGPVQVLIVKDDHSFELDETALNRILLSEAVRDKEVVAVSVAGAFRKGKSFLMDFMLRYMYNQESVDWVGDYNEPLTGFSWRGGSERETTGIQIWSEIFLINKPDGKKVAVLLMDTQGTFDSQSTLRDSATVFALSTMISSIQVYNLSQNVQEDDLQHLQLFTEYGRLAMEETFLKPFQSLIFLVRDWSFPYEFSYGADGGAKFLEKRLKVSGNQHEELQNVRKHIHSCFTNISCFLLPHPGLKVATNPNFDGKLKEIDDEFIKNLKILIPWLLSPESLDIKEINGNKITCRGLVEYFKAYIKIYQGEELPHPKSMLQATAEANNLAAVATAKDTYNKKMEEICGGDKPFLAPNDLQTKHLQLKEESVKLFRGVKKMGGEEFSRRYLQQLESEIDELYIQYIKHNDSKNIFHAAR
B1: in the series “SEC-MALS”, the “stoichiometry N” value stood at 2.

B2: human atlastin 3 (hATL3) catalytic core fragment, G and middle domains (1–442) (domain or fragment, UniProt Q6DD88 1-442, looked up)
chain: MLSPQRVAAAASRGADDAMESSKPGPVQVVLVQKDQHSFELDEKALASILLQDHIRDLDVVVVSVAGAFRKGKSFILDFMLRYLYSQKESGHSNWLGDPEEPLTGFSWRGGSDPETTGIQIWSEVFTVEKPGGKKVAVVLMDTQGAFDSQSTVKDCATIFALSTMTSSVQIYNLSQNIQEDDLQQLQLFTEYGRLAMDEIFQKPFQTLMFLVRDWSFPYEYSYGLQGGMAFLDKRLQVKEHQHEEIQNVRNHIHSCFSDVTCFLLPHPGLQVATSPDFDGKLKDIAGEFKEQLQALIPYVLNPSKLMEKEINGSKVTCRGLLEYFKAYIKIYQGEDLPHPKSMLQATAEANNLAAAASAKDIYYNNMEEVCGGEKPYLSPDILEEKHCEFKQLALDHFKKTKKMGGKDFSFRYQQELEEEIKELYENFCKHNGSKNVFSTFR
As to B2, the “stoichiometry N” value in the series “SEC-MALS” was 2.
